IC50 data for four compounds are collected here from US12421249B2, “Inhibitors of APOL1 and methods of using same” (Vertex Pharmaceuticals Incorporated, priority 2020, dated 2025).

What is called IC50 is the concentration needed to halve the response being measured. A low value points to higher potency.

For the test, the target named is T1, APOL1 G1 (Homo sapiens, UniProt O14791, I384M/S342G).
T1 sequence (O14791 28-398 S342G/I384M): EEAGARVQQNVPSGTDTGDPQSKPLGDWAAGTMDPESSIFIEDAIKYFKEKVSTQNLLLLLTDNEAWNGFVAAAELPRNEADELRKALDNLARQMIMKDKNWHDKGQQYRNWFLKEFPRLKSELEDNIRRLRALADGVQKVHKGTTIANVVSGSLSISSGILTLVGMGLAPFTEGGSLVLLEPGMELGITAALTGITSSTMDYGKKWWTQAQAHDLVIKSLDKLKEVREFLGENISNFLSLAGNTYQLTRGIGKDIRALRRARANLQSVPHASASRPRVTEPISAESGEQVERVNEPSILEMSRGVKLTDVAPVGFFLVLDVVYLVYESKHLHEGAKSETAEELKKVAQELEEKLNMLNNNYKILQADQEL
The test can be described thus: MultiTox-Fluor Multiplex Cytotoxicity Assay in tet-inducible APOL1 G1 T-REx-HEK293 cells (clone G1 DC3.25). It counts as cell-based. More on the design: expressed in transfected cells; host or cells: T-REx HEK293, pAAVS1-Puro-APOL1 G1, clone G1 DC3.25. To be noted: Multi-Tox Assay; IP50 = IC50 for cell proliferation; APOL1 variant cell line not given. As for the experimental part:
The MultiTox-Fluor Multiplex Cytotoxicity Assay is a single-reagent-addition, homogeneous, fluorescence assay that measures the number of live and dead cells simultaneously in culture wells. The assay measures cell viability and cytotoxicity by detecting two distinct protease activities. The live-cell protease activity is restricted to intact viable cells and is measured using a fluorogenic, cell-permeant peptide glycyl-phenylalanylamino fluorocoumarin (GF-AFC) substrate. The substrate enters intact cells, where it is cleaved to generate a fluorescent signal proportional to the number of living cells. […] A second, cell-impermeant, fluorogenic peptide substrate (bis-AAF-R110 Substrate) is used to measure dead-cell protease that has been released from cells that have lost membrane integrity. A ratio of dead to live cells is used to normalize data.
Briefly, the tet-inducible transgenic APOL1 T-REx-HEK293 cell lines were incubated with 50 ng/mL tet to induce APOL1 in the presence of 3-(2-(4-fluorophenyl)-1H-indol-3-yl)-N-((3S,4R)-4-hydroxy-2-oxopyrrolidin-3-yl)propenamide at […], 0.0045, 0.0015, 0.0005 μM in duplicate for 24 hours in a humidified 37° C. incubator. The MultiTox reagent was added to each well and placed back in the incubator for an additional 30 minutes. The plate was read on the EnVision plate reader. A ratio of dead to live cells was used to normalize, and data was imported, analyzed and fit using Genedata Screener (Basel, Switzerland) software. Data was normalized using percent of control, no tet (100% viability), and 50 ng/mL tet treated (0% viability), and fit using Smart Fit. The reagents, methods, and complete protocol for the MultiTox assay are described below.
Human embryonic kidney (HEK293) cell lines containing a tet-inducible expression system (T-REx™; Invitrogen, Carlsbad, CA) and Adeno-associated virus site 1 pAAVS1-Puro-APOL1 G0 or pAAVS1-Puro-APOL1 G1 or pAAVS1-Puro-APOL1 G2 Clones G0 DC2.13, G1 DC3.25, and G2 DC4.44 were grown in a T-225 flask at ˜90% confluency in cell growth media (DMEM, 10% Tet-free FBS, 2 mM L-glutamine, 100 Units/mL penicillin-streptomycin, 5 μg/mL blasticidin S HCl, 1 μg/mL puromycin dihydrochloride). Cells were washed with DPBS and then trypsinized to dissociate from the flask. Media was used to quench the trypsin, cells were then pelleted at 200 g and resuspended in fresh cell assay media (DMEM, 2% Tet-free FBS, 2 mM L-glutamine, 100 Units/mL penicillin-streptomycin). Cells were counted and diluted to 1.17×10^6 cells/mL. 20 μL of cells (23,400/well) were dispensed to every well of a 384-well Poly-D-Lysine coated plate using the Multidrop dispenser. The plates were then incubated at room temperature for one hour.
Tetracycline is needed to induce APOL1 expression. 1 mg/mL tet stock in water was diluted to 250 ng/mL (5×) in cell assay media. 60 μL of cell assay media (no tet control) was dispensed in columns 1 and 24, and 60 μL of 5× tet was dispensed in 384-PP-round bottom plate in columns 2 to 23 with the Multidrop dispenser.
Assay ready plates from the Global Compound Archive were ordered using template 384_APOL1Cell_DR10n2_50 μM_v3. Compounds were dispensed at 200 nL in DMSO. The final top concentration was 10 μM with a 10 point 3-fold dilution in duplicate in the MultiTox assay.
20 μL were transferred from the 5× tet plate to the ARP and mixed, then 5 μL of 5× tet and the compounds were transferred to the cell plate and mixed using the Bravo. The cell plate was placed in the humidified 37° C. 5% CO2 incubator for 24 hours.
The MultiTox-Fluor Multiplex Cytotoxicity Assay was performed in accordance with the manufacturer's protocol. After cells were incubated with tet and compound for 24 hours, 25 μL of 1× MultiTox reagent was added to each well using the Multidrop dispenser; the plates were placed on a plate shaker (600 rpm) for 2 minutes, then centrifuged briefly and placed back in the 37° C. incubator for 30 minutes. […]
As to `Cn1cc([C@@H]2C[C@]3(C[C@H](c4ccccc4)N2)OC[C@@H](O)c2cc(Cl)sc23)nn1` [Compound 387, (2′S,4S,6′R, 7S)-2-chloro-2′-(1-methyltriazol-4-yl)-6′-phenyl-spiro[4,5-dihydrothieno[2,3-c]pyran-7,4′-piperidine]-4-ol], the IC50 was above 500 nM.
With `Cn1cc(C2CC3(CC(C(F)F)N2)OCCc2cc(Cl)sc23)nn1` (stereo not shown) [Compound 388, 2-chloro-2′-(difluoromethyl)-6′-(1-methyltriazol-4-yl)spiro[4,5-dihydrothieno[2,3-c]pyran-7,4′-piperidine]] the figure was above 500 nM; with `Cn1cc(C2CC3(CC(C(F)F)N2)OCCc2cc(C(F)(F)F)sc23)nn1` (stereo not shown) [Compound 389, 2′-(difluoromethyl)-6′-(1-methyltriazol-4-yl)-2-(trifluoromethyl)spiro[4,5-dihydrothieno[2,3-c]pyran-7,4′-piperidine]], 50 to 500 nM; with `C[C@H]1C[C@@]2(C[C@@H](c3cn(C)nn3)N1)OC[C@@H](O)c1sc(C(F)(F)F)cc12` [Compound 390, (2′S,4S,6′S, 7R)-2′-methyl-6′-(1-methyltriazol-4-yl)-2-(trifluoromethyl)spiro[6,7-dihydrothieno[3,2-c]pyran-4,4′-piperidine]-7-ol], below 50 nM.
